Measurements from ChEMBL document CHEMBL1201862, “PubChem BioAssay data set” (2004).
Activity calls are given as the source filed them.

Assays:
Mucolipin-3 = target: T1, Mucolipin-3 (Homo sapiens, UniProt Q8TDD5); experiment: Dose response cell-based high-throughput screening assay for agonists of the transient receptor potential channel ML3 (TRPML3). [Related pubchem assays: 1526, 1424, 1448 ]; assay type: functional
T1 sequence (Q8TDD5 whole entry): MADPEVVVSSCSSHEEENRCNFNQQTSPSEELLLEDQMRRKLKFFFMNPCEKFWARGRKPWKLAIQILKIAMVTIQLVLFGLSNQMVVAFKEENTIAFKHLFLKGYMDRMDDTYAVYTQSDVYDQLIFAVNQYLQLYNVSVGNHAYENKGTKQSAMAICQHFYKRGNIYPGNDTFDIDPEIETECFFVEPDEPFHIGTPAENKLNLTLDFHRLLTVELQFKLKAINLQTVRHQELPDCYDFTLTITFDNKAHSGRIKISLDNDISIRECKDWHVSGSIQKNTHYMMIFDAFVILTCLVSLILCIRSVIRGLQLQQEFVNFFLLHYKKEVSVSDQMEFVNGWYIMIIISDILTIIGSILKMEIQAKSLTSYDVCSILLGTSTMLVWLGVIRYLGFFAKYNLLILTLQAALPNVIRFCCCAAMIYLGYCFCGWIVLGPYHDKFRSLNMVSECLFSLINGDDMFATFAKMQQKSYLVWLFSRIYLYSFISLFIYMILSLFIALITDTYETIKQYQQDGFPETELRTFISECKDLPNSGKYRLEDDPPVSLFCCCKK

Ion channel NompC = Ion channel NompC (Danio rerio, UniProt Q7T1G6); experiment: Fluorescence counterscreen assay for TRPML3 agonists: dose response cell-based high-throughput screening assay to identify agonists of the transient receptor potential channel N1 (TRPN1). [Related pubchem assays: 1526, 1424, 1448 ]; assay type: functional
Estrogen receptor [1] = target: T2, Estrogen receptor (Homo sapiens, UniProt P03372); experiment: ERα coactivator recruitment enhancers – biochemical, TR-FRET, ERα LBD, dose response (AID 737)
T2 sequence (P03372 whole entry): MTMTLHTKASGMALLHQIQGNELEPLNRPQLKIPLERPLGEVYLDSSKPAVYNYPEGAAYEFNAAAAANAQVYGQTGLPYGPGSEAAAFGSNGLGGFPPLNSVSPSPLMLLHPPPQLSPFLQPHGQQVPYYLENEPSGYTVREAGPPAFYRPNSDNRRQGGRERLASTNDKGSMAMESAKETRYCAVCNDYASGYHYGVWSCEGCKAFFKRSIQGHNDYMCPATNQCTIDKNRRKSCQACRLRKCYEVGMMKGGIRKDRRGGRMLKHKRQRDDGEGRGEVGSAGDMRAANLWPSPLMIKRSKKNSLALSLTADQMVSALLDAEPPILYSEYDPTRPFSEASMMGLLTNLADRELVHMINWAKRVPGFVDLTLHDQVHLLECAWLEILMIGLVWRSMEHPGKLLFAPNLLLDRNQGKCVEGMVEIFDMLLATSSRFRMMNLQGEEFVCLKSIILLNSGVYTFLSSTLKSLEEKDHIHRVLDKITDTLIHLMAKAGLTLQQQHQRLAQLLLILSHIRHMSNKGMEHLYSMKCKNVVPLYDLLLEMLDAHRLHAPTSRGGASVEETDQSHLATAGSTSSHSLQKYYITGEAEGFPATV

NADPH oxidase 1 = target: T3, NADPH oxidase 1 (Homo sapiens, UniProt Q9Y5S8); assay type: functional, cell-based;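 also: Cell-based assay with luminescence read-out, IC50 derived from inhibitor dose-response curves; intracellular ROS from endogenous NOX1 in intact HT29 colon cancer cells; potency of inhibitors that lower the ROS luminescence signal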
T3 sequence (Q9Y5S8 whole entry): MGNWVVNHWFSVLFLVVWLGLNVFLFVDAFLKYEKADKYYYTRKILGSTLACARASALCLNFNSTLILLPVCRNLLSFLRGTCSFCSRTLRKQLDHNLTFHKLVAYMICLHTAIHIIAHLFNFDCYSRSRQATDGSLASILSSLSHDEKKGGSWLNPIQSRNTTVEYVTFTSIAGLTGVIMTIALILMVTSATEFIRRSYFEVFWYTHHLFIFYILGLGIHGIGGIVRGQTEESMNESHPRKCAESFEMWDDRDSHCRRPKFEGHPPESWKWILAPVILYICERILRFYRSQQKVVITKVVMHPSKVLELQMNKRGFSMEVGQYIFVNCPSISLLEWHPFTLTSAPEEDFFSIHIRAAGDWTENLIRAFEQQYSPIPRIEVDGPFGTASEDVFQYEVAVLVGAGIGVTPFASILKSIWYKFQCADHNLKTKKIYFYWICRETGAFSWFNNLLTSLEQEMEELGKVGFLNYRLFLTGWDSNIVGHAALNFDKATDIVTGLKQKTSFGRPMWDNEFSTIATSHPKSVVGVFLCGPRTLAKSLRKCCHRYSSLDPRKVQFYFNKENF

[2] = target: E3 ubiquitin-protein ligase Mdm2 (Homo sapiens, UniProt Q00987); experiment: MDM2-luc reporter signal enhancers, multi-concentration potency testing, MDM2 ubiquitin-protein ligase inhibitor program, whole-cell format, luminescence detection, 384-well microplate (AID 1394); assay type: functional;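 also: MDM2 E3 inhibitors raise luminescence so EC50 is for signal enhancement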
[3] = Luminescent dose response cell-based high throughput screening assay for inhibitors of the Janus kinase 2 mutant JAK2V617F. [Related pubchem assays: 1446 (Primary screen.), 1521 (Confirmation assay.), 1486 (Counter screen.)]; assay type: functional
Kallikrein-7 = Kallikrein-7 (Homo sapiens, UniProt P49862); experiment: Fluorescence Intensity-based biochemical primary high throughput dose response assay to identify activators of kallikrein-7 (K7) zymogen.
[4] = mitochondrial function rescue without frataxin homolog – Friedreich's ataxia, plus single-dose screen, dose response (AID 1465); assay type: functional;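 also: yeast depleted of Yfh1p frataxin homolog grown on glycerol needing respiration; WST-1 tetrazolium dye reduction as measure of cellular dehydrogenase metabolic activity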
[5] = target: T4, RNA-binding protein pos-1 (Caenorhabditis elegans, UniProt G5EF15); experiment: disruptors of C. elegans POS-1 RNA interaction – biochemical, fluorescence polarization, dose response (AID 1964);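 also: purified POS-1 fused to maltose binding protein made in E. coli; potency of compounds blocking POS-1 binding to fluorescent RNA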
T4 sequence (G5EF15 whole entry): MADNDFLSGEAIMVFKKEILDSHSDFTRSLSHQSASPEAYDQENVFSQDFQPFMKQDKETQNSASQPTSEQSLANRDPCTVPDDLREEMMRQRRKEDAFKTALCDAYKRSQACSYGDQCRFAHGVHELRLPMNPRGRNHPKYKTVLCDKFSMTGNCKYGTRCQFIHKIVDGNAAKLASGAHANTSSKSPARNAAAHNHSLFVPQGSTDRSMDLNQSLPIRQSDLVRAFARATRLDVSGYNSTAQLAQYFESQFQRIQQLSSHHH

[6] = target: T5, Zinc finger protein mex-5 (Caenorhabditis elegans, UniProt Q9XUB2); experiment: potency of MEX-5 RNA-binding blockers – biochemical, C. elegans, fluorescence polarization, dose response (AID 1960)
T5 sequence (Q9XUB2 whole entry): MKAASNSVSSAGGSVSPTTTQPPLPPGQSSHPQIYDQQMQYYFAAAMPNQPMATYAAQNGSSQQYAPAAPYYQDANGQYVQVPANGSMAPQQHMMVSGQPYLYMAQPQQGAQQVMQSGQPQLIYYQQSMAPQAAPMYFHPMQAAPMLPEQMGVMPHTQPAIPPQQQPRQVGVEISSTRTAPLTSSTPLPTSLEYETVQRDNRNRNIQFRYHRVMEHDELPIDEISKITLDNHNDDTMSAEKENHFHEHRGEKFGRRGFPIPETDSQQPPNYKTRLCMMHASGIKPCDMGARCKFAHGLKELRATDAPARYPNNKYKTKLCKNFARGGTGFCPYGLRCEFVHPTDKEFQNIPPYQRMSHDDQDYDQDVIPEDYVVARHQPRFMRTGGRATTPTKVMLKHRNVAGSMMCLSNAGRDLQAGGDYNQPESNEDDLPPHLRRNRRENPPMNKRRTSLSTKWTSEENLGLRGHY

Large T antigen = Large T antigen (Simian virus 40, UniProt P03070); assay type: functional, Betapolyomavirus macacae;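 also: Confirmatory-stage PubChem screen for compounds that inhibit SV40 T antigen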
[7] = M. tuberculosis growth inhibition, HTS (AID 449762); assay type: functional
[8] = viability of uninfected HEp-2 cells – cell-based, HTS, cytotoxicity control for RSV inhibitor project, dose response (AID 2410); assay type: functional; conditions: human respiratory syncytial virus
Estrogen receptor [9] = target: T2, Estrogen receptor
Estrogen receptor beta [10] = target: T6, Estrogen receptor beta (Homo sapiens, UniProt Q92731);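 also: recombinant ER-beta bound to coactivator SRC1 peptide in presence of estradiol agonist; inhibitors block coactivator peptide binding and lower the FRET signal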
Estrogen receptor beta [11] = target: T6, Estrogen receptor beta; experiment: blockers of SRC-3 recruitment to ERβ – biochemical, ELISA, streptavidin-HRP readout, orthogonal assay, confirmation (AID 1060)
[12] = target: T7, Mannose-6-phosphate isomerase (Homo sapiens, UniProt P34949); experiment: MPI inhibition at elevated mannose 6-phosphate – biochemical, fluorescence intensity, high mannose 6-phosphate, primary screen (AID 1220)
T7 sequence (P34949 whole entry): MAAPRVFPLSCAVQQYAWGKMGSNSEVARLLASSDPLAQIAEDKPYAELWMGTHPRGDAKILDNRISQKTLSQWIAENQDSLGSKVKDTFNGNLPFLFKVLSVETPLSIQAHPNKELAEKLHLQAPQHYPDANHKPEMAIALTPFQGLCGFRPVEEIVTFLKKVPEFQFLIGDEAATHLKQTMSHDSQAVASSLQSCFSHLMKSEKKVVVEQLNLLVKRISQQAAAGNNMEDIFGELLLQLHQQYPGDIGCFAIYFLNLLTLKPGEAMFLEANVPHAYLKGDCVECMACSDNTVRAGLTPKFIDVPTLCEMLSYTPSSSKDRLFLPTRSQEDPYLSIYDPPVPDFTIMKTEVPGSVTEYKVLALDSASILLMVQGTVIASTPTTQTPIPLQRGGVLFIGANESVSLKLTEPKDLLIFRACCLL

[13] = target: T8, Histone-lysine N-methyltransferase NSD2 (Homo sapiens, UniProt O96028); assay type: biochemical
T8 sequence (O96028 whole entry): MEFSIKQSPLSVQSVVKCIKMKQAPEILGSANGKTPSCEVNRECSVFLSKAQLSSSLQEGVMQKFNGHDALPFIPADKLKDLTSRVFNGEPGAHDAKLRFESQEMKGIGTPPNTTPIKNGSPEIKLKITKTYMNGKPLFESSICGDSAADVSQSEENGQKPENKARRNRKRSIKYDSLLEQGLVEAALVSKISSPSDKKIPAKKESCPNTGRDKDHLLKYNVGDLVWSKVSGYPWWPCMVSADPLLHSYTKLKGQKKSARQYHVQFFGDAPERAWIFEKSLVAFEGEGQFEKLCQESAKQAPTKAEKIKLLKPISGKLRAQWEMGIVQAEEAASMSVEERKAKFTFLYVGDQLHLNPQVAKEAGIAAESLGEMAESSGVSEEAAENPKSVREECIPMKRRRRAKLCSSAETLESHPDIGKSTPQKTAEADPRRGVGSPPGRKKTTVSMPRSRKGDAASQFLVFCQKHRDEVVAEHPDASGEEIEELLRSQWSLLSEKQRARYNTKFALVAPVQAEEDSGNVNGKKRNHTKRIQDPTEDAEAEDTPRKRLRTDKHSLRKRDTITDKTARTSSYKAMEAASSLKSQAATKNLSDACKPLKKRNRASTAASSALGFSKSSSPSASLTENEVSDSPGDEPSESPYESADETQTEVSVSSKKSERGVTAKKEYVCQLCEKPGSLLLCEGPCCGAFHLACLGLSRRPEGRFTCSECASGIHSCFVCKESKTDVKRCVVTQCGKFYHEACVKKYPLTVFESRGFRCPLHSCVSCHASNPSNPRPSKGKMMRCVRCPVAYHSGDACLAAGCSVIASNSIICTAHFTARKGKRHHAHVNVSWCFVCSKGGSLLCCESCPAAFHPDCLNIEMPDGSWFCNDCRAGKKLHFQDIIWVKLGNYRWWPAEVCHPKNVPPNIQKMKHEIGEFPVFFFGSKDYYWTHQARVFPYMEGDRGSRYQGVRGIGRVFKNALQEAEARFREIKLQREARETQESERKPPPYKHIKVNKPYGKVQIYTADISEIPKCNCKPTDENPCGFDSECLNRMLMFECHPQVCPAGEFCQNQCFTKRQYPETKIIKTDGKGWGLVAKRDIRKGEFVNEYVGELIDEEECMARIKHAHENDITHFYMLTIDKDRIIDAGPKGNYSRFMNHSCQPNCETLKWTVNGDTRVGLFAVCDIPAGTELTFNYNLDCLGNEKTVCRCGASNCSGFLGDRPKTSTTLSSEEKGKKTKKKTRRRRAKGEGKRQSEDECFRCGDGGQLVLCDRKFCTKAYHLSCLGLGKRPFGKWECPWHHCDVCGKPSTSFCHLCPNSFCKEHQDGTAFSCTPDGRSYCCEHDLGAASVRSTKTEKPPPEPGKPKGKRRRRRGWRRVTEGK

T6 sequence (Q92731 whole entry): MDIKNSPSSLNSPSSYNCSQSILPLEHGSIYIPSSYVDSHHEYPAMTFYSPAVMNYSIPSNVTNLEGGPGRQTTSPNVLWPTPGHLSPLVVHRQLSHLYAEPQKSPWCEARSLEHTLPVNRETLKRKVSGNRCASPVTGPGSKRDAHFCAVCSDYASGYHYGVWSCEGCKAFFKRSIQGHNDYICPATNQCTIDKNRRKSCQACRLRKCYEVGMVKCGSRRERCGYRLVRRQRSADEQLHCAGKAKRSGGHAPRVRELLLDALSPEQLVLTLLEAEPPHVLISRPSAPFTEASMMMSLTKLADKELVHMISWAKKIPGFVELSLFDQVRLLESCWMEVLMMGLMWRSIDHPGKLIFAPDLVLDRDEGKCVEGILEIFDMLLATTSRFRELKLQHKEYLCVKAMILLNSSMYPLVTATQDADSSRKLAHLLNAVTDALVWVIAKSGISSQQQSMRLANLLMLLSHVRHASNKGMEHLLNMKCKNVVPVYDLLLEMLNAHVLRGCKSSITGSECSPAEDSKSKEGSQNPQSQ
Chain of Ion channel NompC (Q7T1G6 whole entry, the tested form may be a part): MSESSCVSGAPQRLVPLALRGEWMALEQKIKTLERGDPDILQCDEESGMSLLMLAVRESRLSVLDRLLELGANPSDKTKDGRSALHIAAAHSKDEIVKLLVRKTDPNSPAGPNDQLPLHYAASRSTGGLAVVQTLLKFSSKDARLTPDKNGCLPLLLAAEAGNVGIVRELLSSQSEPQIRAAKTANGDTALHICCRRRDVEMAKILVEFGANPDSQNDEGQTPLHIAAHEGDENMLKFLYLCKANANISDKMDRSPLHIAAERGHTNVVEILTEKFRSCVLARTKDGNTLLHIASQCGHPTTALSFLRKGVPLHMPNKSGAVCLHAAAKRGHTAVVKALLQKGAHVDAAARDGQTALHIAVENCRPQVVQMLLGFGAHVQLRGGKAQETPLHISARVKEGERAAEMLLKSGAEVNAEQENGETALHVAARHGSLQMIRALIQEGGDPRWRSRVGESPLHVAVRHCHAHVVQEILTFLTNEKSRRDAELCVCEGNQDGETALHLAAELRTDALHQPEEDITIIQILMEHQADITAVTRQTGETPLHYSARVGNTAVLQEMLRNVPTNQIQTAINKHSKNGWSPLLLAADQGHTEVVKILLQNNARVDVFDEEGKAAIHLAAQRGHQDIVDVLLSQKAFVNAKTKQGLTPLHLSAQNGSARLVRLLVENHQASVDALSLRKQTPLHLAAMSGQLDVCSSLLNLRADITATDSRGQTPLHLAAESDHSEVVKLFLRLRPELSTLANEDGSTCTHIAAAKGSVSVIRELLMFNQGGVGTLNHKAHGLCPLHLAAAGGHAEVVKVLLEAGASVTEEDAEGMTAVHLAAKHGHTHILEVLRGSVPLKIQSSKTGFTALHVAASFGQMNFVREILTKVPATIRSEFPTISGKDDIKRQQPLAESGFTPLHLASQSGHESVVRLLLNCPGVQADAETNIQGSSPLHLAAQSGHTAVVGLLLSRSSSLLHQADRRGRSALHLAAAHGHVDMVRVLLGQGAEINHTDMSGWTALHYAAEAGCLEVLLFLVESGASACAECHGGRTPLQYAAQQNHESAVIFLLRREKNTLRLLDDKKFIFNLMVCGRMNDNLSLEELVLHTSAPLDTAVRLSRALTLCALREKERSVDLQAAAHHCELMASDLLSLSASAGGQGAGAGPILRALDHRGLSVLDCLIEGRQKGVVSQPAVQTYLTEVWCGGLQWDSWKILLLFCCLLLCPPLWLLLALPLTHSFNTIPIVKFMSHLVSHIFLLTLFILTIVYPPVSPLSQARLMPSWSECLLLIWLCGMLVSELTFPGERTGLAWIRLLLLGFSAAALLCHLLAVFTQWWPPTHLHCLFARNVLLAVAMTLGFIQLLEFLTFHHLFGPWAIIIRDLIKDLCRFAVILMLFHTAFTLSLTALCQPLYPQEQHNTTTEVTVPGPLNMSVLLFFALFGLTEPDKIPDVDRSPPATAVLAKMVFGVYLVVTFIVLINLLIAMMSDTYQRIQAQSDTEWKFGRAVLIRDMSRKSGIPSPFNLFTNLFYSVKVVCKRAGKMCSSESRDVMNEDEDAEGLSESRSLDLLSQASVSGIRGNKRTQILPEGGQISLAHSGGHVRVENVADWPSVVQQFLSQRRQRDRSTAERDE
Chain of E3 ubiquitin-protein ligase Mdm2 (Q00987 whole entry): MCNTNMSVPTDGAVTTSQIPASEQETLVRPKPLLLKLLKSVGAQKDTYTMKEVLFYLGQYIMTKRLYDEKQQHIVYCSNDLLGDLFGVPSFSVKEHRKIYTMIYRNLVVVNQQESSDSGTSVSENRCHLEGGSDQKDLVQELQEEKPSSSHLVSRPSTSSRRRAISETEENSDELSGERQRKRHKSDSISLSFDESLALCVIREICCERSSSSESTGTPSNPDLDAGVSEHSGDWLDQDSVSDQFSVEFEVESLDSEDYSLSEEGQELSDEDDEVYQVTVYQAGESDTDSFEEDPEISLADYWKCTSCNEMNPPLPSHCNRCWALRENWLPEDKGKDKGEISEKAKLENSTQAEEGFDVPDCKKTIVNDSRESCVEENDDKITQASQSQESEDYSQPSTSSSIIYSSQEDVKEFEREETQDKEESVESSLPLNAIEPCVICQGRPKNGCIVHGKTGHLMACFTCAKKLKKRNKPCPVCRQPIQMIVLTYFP
Chain of Kallikrein-7 (P49862 whole entry): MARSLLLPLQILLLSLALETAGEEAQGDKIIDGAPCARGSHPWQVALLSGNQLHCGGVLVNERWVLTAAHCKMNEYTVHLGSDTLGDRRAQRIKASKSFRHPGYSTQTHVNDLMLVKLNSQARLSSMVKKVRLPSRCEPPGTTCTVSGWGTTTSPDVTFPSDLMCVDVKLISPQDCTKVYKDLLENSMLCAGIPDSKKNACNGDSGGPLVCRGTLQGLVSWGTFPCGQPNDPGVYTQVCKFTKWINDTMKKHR
Chain of Large T antigen (P03070 whole entry): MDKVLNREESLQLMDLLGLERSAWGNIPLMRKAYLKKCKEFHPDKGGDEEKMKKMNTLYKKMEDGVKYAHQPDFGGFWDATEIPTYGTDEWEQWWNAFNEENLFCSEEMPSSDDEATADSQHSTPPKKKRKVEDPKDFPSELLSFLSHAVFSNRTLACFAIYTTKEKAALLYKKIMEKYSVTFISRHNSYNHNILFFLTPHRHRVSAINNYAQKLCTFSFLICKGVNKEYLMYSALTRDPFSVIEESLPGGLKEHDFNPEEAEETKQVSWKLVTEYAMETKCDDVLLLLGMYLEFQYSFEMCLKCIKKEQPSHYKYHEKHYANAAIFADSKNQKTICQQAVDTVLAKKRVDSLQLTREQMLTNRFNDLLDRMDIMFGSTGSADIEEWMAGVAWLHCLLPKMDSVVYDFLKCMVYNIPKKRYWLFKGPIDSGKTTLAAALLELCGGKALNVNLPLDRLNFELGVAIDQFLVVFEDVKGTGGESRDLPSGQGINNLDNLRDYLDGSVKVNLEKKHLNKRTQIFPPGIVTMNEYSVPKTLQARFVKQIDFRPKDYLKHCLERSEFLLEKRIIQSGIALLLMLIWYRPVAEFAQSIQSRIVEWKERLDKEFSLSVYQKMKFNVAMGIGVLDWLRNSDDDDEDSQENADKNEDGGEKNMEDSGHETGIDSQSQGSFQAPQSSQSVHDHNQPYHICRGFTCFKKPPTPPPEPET

Compound: COC(=O)C1(C(C[N+](=O)[O-])c2ccco2)C(=O)NCC1c1ccccc1 (centres undefined)
- EC50 (Mucolipin-3): 7.77 µM (active)
- EC50 (Ion channel NompC): > 29.9 µM (not active)

Compound: COc1cc(NC(=O)c2cc3c(=O)n(C)c4ccccc4c3n2C)cc(OC)c1OC
- EC50 (Estrogen receptor [1]): 12.9 µM (not active)

Compound: O=C(Nc1ccc(Cl)cc1)Nc1ccc(Oc2ccccc2)cc1
- IC50 (NADPH oxidase 1): > 17 µM (not active)

Compound: COc1ccc(S(=O)(=O)NN(C)c2ncc(C(F)(F)F)cc2Cl)cc1
- EC50 [2]: 0.38 µM (not active)

Compound: O=C(Nc1cccc2c1[nH]c1ccccc12)C(F)(F)F
- IC50 [3]: 2.48 µM (active)
- EC50 (Kallikrein-7): 31.8 µM (inactive)

Compound: CC1(OC(=O)CCc2ccccc2)C(=O)C=C2C=C(c3ccc(C#N)cc3)N(Cc3ccco3)C=C2C1=O (centres undefined)
- EC50 [4]: > 100 µM (active)

Compound: COc1ccccc1N1C(=O)NC(=O)/C(=C/c2ccc([N+](=O)[O-])s2)C1=O
- EC50 [5]: 44.1 µM (active)
- EC50 [6]: 23 µM (active)
- IC50 (Large T antigen): > 100 µM (active)
- IC50 [7]: > 100 µM (active)

Compound: Cc1ccc(S(=O)(=O)N2CCc3ccccc3C2CN2C(=O)c3ccccc3C2=O)cc1 (centres undefined)
- CC50 [8]: 45.1 µM (active)
- EC50 (Mucolipin-3): > 29.9 µM (not active)
- EC50 (Ion channel NompC): > 29.9 µM (not active)

Compound: O=C(NCc1ccco1)c1cc2c(s1)CSC2
- IC50 (Estrogen receptor [9]): 9.41 µM (active)
- IC50 (Estrogen receptor beta [10]): 7.85 µM (active)
- IC50 (Estrogen receptor beta [11]): 0.0368 µM (not active)

Compound: COc1ccccc1N=C(S)Nc1cccc2cnccc12
- IC50 [12]: > 50 µM (not active)
- AC50 [13]: 10.1 µM (active)

Compound: C1CCC(c2nn3c(-c4[nH]nc5c4CCC5)nnc3s2)CC1
- IC50 (Estrogen receptor [9]): > 50 µM (not active)
- IC50 (Estrogen receptor beta [10]): 10.2 µM (active)
- IC50 (Estrogen receptor beta [11]): > 50 µM (not active)

Compound: CC(=O)Nc1ccccc1OC(=O)c1sc2ccccc2c1Cl
- IC50 (NADPH oxidase 1): > 17 µM (not active)
